{"source": "ChEMBL document CHEMBL1201862", "about": "“PubChem BioAssay data set” (2004)", "key": {"Large T antigen": {"biological_target": "Large T antigen (Simian virus 40, UniProt P03070)", "sequence (P03070 whole entry)": "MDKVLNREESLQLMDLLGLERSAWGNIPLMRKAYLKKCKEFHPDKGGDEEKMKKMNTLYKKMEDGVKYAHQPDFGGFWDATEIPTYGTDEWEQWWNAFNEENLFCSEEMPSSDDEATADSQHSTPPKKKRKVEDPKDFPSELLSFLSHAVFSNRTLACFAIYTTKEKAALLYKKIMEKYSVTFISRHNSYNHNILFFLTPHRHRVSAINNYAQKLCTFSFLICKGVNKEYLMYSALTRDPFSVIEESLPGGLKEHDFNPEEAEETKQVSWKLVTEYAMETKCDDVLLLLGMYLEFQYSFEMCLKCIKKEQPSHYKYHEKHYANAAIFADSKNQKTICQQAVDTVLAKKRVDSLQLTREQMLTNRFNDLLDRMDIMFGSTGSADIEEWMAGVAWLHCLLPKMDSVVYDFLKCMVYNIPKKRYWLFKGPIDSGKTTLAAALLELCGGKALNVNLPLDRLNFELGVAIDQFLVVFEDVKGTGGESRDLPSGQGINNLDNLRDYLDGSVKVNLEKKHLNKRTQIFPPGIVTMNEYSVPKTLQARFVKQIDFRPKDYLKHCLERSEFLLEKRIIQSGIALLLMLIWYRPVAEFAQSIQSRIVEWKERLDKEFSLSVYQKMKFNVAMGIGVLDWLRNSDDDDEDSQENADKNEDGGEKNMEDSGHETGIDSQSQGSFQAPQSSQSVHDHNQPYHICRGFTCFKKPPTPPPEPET", "type": "functional, Betapolyomavirus macacae"}, "[1]": {"biological_target": "T1, Replicative DNA helicase DnaB (Mycobacterium tuberculosis, UniProt P9WMR3)", "T1 sequence (P9WMR3 whole entry)": "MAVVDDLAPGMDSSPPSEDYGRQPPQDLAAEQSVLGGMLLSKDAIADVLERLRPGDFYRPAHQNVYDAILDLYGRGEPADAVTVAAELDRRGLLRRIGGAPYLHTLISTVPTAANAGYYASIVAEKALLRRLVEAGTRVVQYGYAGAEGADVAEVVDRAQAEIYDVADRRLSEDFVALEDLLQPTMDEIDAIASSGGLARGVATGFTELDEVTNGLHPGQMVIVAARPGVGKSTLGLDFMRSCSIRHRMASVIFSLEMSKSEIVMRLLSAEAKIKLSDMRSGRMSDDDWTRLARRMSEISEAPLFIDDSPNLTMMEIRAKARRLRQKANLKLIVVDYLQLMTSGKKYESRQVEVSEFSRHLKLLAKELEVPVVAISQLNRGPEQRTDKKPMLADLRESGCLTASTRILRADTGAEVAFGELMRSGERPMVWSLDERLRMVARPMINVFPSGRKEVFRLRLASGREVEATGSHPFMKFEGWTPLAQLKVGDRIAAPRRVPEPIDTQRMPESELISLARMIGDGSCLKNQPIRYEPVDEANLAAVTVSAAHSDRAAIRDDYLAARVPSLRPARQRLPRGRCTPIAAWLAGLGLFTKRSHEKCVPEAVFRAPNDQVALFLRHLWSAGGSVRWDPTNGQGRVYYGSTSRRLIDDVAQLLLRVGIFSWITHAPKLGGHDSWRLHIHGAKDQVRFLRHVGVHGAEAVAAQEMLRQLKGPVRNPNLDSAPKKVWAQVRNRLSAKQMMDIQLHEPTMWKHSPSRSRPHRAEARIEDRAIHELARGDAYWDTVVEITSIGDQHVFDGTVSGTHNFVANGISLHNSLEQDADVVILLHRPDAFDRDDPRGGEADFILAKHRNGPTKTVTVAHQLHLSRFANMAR", "experiment": "DnaB intein splicing inhibitors, dose response, biochemical, cell-free fluorescence (AID 449749)", "type": "functional"}, "Protein RecA": {"biological_target": "T2, Protein RecA (Mycobacterium tuberculosis, UniProt P9WHJ3)", "T2 sequence (P9WHJ3 whole entry)": "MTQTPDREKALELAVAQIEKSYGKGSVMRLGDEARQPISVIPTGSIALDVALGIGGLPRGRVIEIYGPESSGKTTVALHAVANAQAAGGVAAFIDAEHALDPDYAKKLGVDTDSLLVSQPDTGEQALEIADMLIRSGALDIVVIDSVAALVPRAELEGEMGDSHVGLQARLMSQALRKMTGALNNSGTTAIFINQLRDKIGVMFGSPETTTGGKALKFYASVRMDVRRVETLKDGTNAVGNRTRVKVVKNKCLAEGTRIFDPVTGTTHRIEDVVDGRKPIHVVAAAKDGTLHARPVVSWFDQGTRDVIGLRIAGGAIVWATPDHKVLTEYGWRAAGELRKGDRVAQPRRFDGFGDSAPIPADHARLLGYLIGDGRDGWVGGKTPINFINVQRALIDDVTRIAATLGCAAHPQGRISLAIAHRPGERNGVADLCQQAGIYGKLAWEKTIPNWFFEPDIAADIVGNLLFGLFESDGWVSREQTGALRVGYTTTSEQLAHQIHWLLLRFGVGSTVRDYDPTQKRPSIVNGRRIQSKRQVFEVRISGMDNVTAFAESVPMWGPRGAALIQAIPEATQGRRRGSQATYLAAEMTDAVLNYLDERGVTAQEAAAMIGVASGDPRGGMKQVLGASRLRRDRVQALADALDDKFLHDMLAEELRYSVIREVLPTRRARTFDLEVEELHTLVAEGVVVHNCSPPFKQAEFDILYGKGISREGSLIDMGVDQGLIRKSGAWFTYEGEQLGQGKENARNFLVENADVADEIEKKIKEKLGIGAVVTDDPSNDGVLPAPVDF", "experiment": "Fluorescence Cell-Free Homogeneous Dose Retest to Identify Inhibitors of RecA-Intein Splicing Activity. [Related pubchem assays (depositor defined):AID2097, AID2223, AID489010, AID492950]", "type": "functional"}, "[2]": {"experiment": "A cytotoxicity screen of small molecule inhibitors of the PhoP region in Salmonella typhi identified in the primary screen. [Related pubchem assays: 1850, 1864, 1985 ]", "type": "functional"}, "[3]": {"experiment": "LGR2 antagonists, dose response, cell-based, HEK293, CRE-luciferase reporter, cherry pick, set 2 (AID 743343);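 note: transfected cells were stimulated with diluted bursicon conditioned medium after compound addition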", "type": "functional"}, "[4]": {"experiment": "MC4R antagonists, dose response, counter-screen for LGR2 antagonist project, cell-based, plate reader, cherry pick (AID 743444);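 note: transfected HEK 293 cells stimulated with alpha-MSH peptide; potency of inhibitors of the alpha-MSH evoked signal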", "type": "functional"}, "[5]": {"experiment": "THP-1 cell cytotoxicity, dose response, cytotoxicity control for non-replicating M. tuberculosis project (AID 489025)", "type": "functional"}, "H9c2": {"system": "H9c2", "experiment": "cells", "type": "functional, cell-based", "settings": "Rattus norvegicus, H9c2, Myocardium"}, "Cytochrome P450 2C9": {"biological_target": "Cytochrome P450 2C9 (Homo sapiens, UniProt P11712)", "sequence (P11712 whole entry)": "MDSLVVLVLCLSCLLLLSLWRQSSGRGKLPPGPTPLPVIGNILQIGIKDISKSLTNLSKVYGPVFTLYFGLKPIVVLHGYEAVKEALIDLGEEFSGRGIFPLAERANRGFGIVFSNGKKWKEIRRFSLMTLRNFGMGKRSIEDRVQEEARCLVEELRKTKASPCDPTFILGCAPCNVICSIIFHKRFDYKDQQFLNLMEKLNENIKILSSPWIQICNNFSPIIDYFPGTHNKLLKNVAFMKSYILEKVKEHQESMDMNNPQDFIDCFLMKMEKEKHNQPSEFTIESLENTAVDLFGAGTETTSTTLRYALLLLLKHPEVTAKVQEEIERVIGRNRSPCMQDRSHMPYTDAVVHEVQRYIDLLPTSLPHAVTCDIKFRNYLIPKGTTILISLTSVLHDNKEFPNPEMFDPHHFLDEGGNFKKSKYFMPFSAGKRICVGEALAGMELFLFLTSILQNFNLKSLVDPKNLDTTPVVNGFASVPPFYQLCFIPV"}, "[6]": {"experiment": "P. falciparum Dd2 growth inhibitors, dose response, SYBR Green, cherry-picked samples (AID 1159567)", "type": "functional, cell-based"}, "[7]": {"experiment": "inhibitors of firefly luciferase expression or activity, dose response, H4 neuroglioma cells, luminescence (AID 1990)", "type": "functional, cell-based"}, "[8]": {"experiment": "Luminescence Cell-Based Dose Response HTS to Identify Inhibitors of 5'UTR Stem-Loop Driven Prion Protein mRNA Translation in H4 Neuroglioblastoma Cells. [Related pubchem assays: 1827 (Project Summary), 1813 (Primary HTS)]", "type": "functional"}, "[9]": {"experiment": "inhibitors of SNCA 5'UTR-driven reporter translation, confirmation, H4 neuroglioma cells, luminescence (AID 1988)", "type": "functional, cell-based"}, "[10]": {"experiment": "inhibitors of intracellular T. cruzi replication, confirmation, NIH3T3 host cells, beta-gal luminescence (AID 2044);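 note: luminescent beta-galactosidase reporter signal from transgenic T. cruzi replicating inside host cells; inhibitors lower the luminescence signal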", "type": "functional, cell-based"}, "[11]": {"experiment": "cytotoxicity toward NIH3T3 fibroblasts, dose response, counter-screen, cell-based, ATP luminescence, mouse fibroblasts (AID 2010);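 note: cells exposed to compound for about 90 hours before reading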", "type": "functional"}, "[12]": {"biological_target": "T3, Short transient receptor potential channel 4 (Mus musculus, UniProt Q9QUQ5)", "T3 sequence (Q9QUQ5 whole entry)": "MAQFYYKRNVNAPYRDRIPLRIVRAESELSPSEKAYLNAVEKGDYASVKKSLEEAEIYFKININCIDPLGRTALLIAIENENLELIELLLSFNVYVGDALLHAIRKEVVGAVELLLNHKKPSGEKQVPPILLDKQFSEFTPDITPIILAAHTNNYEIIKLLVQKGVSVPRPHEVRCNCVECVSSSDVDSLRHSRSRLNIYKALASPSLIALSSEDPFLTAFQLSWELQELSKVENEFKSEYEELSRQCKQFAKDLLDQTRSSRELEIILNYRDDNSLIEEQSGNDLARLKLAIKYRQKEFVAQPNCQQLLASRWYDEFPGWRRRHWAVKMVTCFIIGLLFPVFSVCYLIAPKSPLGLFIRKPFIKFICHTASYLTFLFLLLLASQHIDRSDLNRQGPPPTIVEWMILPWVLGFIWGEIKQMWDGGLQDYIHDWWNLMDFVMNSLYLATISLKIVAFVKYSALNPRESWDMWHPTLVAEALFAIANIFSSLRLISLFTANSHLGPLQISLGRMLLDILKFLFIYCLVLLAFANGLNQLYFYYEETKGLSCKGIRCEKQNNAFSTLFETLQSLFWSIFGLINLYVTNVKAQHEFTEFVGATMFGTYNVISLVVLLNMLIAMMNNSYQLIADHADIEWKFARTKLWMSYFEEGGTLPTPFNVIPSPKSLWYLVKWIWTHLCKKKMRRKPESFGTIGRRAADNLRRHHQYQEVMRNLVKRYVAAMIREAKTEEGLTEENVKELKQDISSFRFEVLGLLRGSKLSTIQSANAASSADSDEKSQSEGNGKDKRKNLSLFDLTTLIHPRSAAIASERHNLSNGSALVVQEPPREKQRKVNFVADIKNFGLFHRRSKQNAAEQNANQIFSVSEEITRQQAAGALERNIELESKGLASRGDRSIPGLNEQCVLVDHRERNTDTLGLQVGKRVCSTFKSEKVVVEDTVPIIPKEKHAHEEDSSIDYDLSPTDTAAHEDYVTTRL", "experiment": "mouse TRPC4 channel inhibitors, dose response, cell-based, HEK293 TRPC4/mu-opioid, Fluo-4 calcium (AID 434942);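 note: potency of inhibitors blocking the TRPC4 calcium response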", "type": "functional"}, "[13]": {"experiment": "Shn3 3'UTR reporter inhibitors, dose response, cell-based, Clone20 osteoblasts, firefly luciferase, cherry-picked (AID 624132)", "type": "functional"}, "[14]": {"experiment": "HepG2 cell cytotoxicity, dose response, cytotoxicity control for Shn3 inhibitor project, CellTiter-Glo, cherry-picked (AID 624134)", "type": "functional, cell-based"}, "[15]": {"experiment": "control 3'UTR Renilla luciferase suppression, dose response, counter-screen for Shn3 inhibitor project, cell-based, Clone20-Shn3RL, cherry-picked (AID 624133)", "type": "functional"}}, "note": "The source made the active and inactive calls."}
{"smiles": "COc1ccc(/C=C(/C#N)C(=O)Nc2ccc(O)cc2)cc1C(=O)O", "values": [{"measurement": "IC50", "setting": "Large T antigen", "result": "36.9 µM (active)"}, {"measurement": "AC50", "setting": "[1]", "result": "32.1 µM (active)"}, {"measurement": "EC50", "setting": "Protein RecA", "result": "8.43 µM (active)"}]}
{"smiles": "Nc1[nH]cnc2nc(SCC(=O)Nc3cccc(C(F)(F)F)c3)nc1-2", "values": [{"measurement": "EC50", "setting": "[2]", "result": "> 50 µM (active)"}]}
{"smiles": "c1nc(CCO[C@H]2CCCCO2)cc2cc3c(cc12)OCO3", "values": [{"measurement": "AC50", "setting": "[3]", "result": "2.56 µM (active)"}, {"measurement": "AC50", "setting": "[4]", "result": "3.45 µM (active)"}]}
{"smiles": "Cn1c(SCc2c(F)cccc2Cl)nc2c(c1=O)SCC2", "values": [{"measurement": "CC50", "setting": "[5]", "result": "> 40 µM (active)"}]}
{"smiles": "COc1cc(C(=O)N/N=C/c2ccc(OC(=O)c3cccc(C)c3)c(OC)c2)ccc1O", "values": [{"measurement": "EC50", "setting": "[2]", "result": "> 50 µM (active)"}, {"measurement": "IC50", "setting": "H9c2", "result": "> 79 µM (inactive)"}]}
{"smiles": "CCOC(=O)c1nc2cc3n(c(CC(C)C)c-2c1C)CC(C)=C3C", "values": [{"measurement": "EC50", "setting": "[2]", "result": "> 50 µM (active)"}]}
{"smiles": "Cc1ccc(C(=O)c2cn(-c3ccc(F)c(Cl)c3)nn2)cc1", "values": [{"measurement": "AC50", "setting": "Cytochrome P450 2C9", "result": "inconclusive"}]}
{"smiles": "NC(=O)CN1N=C(c2cc(Cl)sc2Cl)CSC1=O", "values": [{"measurement": "EC50", "setting": "[2]", "result": "> 50 µM (active)"}]}
{"smiles": "CCN(CC)c1ccc(NC(=O)COC(=O)COc2ccccc2[N+](=O)[O-])cc1", "values": [{"measurement": "IC50", "setting": "Large T antigen", "result": "10.4 µM (active)"}]}
{"smiles": "C[C@@H]1CN([C@@H](C)CO)S(=O)(=O)c2ccc(C#CC3(O)CCCC3)cc2O[C@H]1CN(C)C(=O)c1ccccc1", "values": [{"measurement": "AC50", "setting": "[6]", "result": "4.33 µM (active)"}]}
{"smiles": "CCOc1cc(CNCCCN2CCOCC2)cc(Br)c1OCc1ccccc1Cl", "values": [{"measurement": "EC50", "setting": "[7]", "result": "> 120 µM (not active)"}, {"measurement": "EC50", "setting": "[8]", "result": "> 120 µM (not active)"}, {"measurement": "EC50", "setting": "[9]", "result": "> 120 µM (not active)"}, {"measurement": "EC50", "setting": "[10]", "result": "0.539 µM (active)"}, {"measurement": "EC50", "setting": "[11]", "result": "12 µM (active)"}, {"measurement": "EC50", "setting": "[12]", "result": "4.22 µM (active)"}, {"measurement": "AC50", "setting": "[13]", "result": "9.31 µM (active)"}, {"measurement": "AC50", "setting": "[14]", "result": "11 µM (active)"}, {"measurement": "AC50", "setting": "[15]", "result": "19.3 µM (active)"}]}
